The text below walks through data of paper PMC12865225 (Clinical and Translational Science, 2026).

pIC50: −log10 of the molar value. “And” between values parts separate entries of the source, which are not always exact repeats. Equal values may be shown once. Marks after values point to notes of the source that are not given here.

What is called IC50 is the midpoint of a concentration-inhibition curve. Higher therefore signals weaker potency. The term pIC50 denotes the IC50 on a negative log10 scale, so that one unit is a factor of ten. A higher pIC50 goes with a low IC50.

The test system of series [1] is T1, OAT2.
T1 construct: expressed in transfected cells; host or cells: HEK293 (recombinant baculovirus-mediated transduction)
Put plainly: Uptake transport assay in OAT2-expressing HEK293 cells. Type of series: cell-based, human. As to conditions: 2 and 50 μM, 10 min. How it is done: (§1) The human transporters OATP1B1, OATP1B3, OATP2B1, and OAT1‐OAT4 and a negative control protein (enhanced yellow fluorescent protein, eYFP) were transiently expressed in human embryonic kidney 293 (HEK293) cells by recombinant baculovirus‐mediated transduction. Baculoviruses carrying human genes for the transporters were prepared as reported previously. HEK293 cells were cultured in DMEM containing 10% fetal bovine serum at 37°C and 5% CO2 and passaged two to three times per week. For the transport studies, 0.05 × 10^6 cells for 48‐well plates (OATPs) or 0.06 × 10^6 cells for 24‐well plates (OATs) were seeded onto cell‐culture treated well plates coated with poly‐D‐lysine. After 1 day, cells were transduced to produce recombinant proteins by changing media to DMEM containing 30 μL (48‐well plates) or 60 μL (24‐well plates) of recombinant baculovirus and 3 mM (OATs) or 5 mM (OATPs) sodium butyrate in a total media volume of 500 μL. The cells were cultured for a further 2 days before the transport assays.
(§2) For the transport studies, media were removed and cells were washed once with warm transport uptake buffer (TP‐buffer—pH 7.4 HBSS with 25 mM HEPES and 4 mM sodium bicarbonate). Each experiment included triplicate (OATP) or duplicate (OAT) samples for every test condition. […]

Series [2] concerns the target T2, OAT4 (Homo sapiens, UniProt Q9NSA0).
T2 construct: expressed in transfected cells; host or cells: HEK293 (recombinant baculovirus-mediated transduction)
T2 sequence (Q9NSA0 1-550): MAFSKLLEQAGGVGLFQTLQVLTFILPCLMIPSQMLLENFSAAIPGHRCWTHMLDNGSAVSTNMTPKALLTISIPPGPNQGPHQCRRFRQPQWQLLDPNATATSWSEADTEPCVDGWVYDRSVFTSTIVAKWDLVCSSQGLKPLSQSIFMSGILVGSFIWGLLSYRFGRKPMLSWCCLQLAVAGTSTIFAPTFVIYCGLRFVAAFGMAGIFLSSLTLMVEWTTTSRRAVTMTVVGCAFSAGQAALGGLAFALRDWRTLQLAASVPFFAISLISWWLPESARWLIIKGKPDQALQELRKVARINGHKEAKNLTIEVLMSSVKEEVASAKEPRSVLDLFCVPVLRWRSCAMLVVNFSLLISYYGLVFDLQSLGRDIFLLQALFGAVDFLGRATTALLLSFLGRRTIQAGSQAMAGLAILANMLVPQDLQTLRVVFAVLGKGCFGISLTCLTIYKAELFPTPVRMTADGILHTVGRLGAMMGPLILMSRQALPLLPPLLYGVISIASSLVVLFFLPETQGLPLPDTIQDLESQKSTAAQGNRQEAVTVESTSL
Put plainly: OAT4 inhibition, methotrexate uptake into HEK293 cells. Type of series: cell-based. As to conditions: for Calculated R-value OAT4: R = I max,u/IC50, cut-off ≥ 0.02 (MATE threshold). How it is done: as §1, §2
In the OATP inhibition assays, inhibitors in warm TP‐buffer were directly applied to cells after media removal, followed by a 30‐min preincubation step in the presence of inhibitors. […] OAT1 and OAT3 cells were lysed with 200 μL of 1 M sodium hydroxide for 10 min, and 150 μL of these samples were transferred to a black well plate for fluorescein quantification. […]
For the inhibition data analysis, the average of measured concentrations in the control cells was subtracted from the average of measured concentrations in transporter‐expressing cells for each inhibitor concentration and then normalized to the vehicle sample that represents 100% transport activity. […]

Series [3] has as its target T3, OAT3 (Homo sapiens, UniProt Q8TCC7).
T3 sequence (Q8TCC7 1-542): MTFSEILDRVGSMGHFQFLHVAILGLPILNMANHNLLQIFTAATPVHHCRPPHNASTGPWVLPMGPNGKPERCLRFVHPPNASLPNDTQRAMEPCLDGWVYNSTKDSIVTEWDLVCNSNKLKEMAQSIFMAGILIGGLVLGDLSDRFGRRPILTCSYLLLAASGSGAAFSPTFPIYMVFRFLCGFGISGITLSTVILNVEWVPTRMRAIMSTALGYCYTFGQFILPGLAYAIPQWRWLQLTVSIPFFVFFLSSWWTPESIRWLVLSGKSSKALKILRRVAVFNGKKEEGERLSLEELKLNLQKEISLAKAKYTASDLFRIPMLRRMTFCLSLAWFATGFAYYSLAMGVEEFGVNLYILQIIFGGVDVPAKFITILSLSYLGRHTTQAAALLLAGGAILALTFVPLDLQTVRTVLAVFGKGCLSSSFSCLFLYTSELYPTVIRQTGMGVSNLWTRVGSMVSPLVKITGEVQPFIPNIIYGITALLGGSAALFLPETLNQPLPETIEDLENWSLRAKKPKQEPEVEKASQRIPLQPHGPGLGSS
Put plainly: OAT3 inhibition with 30 min preincubation, fluorescein.
Method: In the OATP inhibition assays, inhibitors in warm TP‐buffer were directly applied to cells after media removal, followed by a 30‐min preincubation step in the presence of inhibitors. No preincubation step was included in the OAT inhibition assays. The inhibition assays were conducted as described above, except that inhibitors were included in the substrate solution. The rosuvastatin concentration was 2.5 μM in the OATP inhibition assays, and the transport assays were conducted for 2 min [24]. For the inhibition studies of OAT1 and OAT3, 5 μM fluorescein was assayed within 5 min, while 34 nM methotrexate within a 10 min assay was employed as the substrate for OAT2 and OAT4 [25, 26, 27, 28]. OAT1 and OAT3 cells were lysed with 200 μL of 1 M sodium hydroxide for 10 min, and 150 μL of these samples were transferred to a black well plate for fluorescein quantification. OAT2 and OAT4 cells were lysed with 200 μL of 0.1% Triton‐X100 for 10 min, and 150 μL of the samples were mixed with 4 mL of scintillation cocktail (Opti‐Fluor from PerkinElmer, Waltham, MA, USA). Each inhibition assay included a vehicle control without an inhibitor.
Cells were pre-incubated with the inhibitors and
vehicle for 30 min before the assay was initiated with fresh solutions of inhibitors and substrate.
The uptake into control cells was subtracted from the uptak e into OAT3-expressing cells for […]

For the molecule `Cc1onc(-c2c(Cl)cccc2Cl)c1C(=O)N[C@@H]1C(=O)N2[C@@H]1SC(C)(C)[C@@H]2C(=O)O` [Dicloxacillin], in series [1], the “transport by OAT2” value is listed as “transported”. In addition, the IC50 in series [2] (IC50 (95% CI), μM OAT4, 34 nM methotrexate, 10 min, no preincubation) is 7.2 µM and 7.23 µM. Moreover, the “Calculated R-value OAT4” value in series [2] is 0.19 ^d. Also, the pIC50 in series [3] is 4.74.
Consider `Cc1onc(-c2c(F)cccc2Cl)c1C(=O)N[C@@H]1C(=O)N2[C@@H]1SC(C)(C)[C@@H]2C(=O)O` [Flucloxacillin], for which the “transport by OAT2” value in series [1] is listed as “transported”. The “Calculated R-value OAT4” value in series [2] is given as 0.08 ^d. The molecule also had a pIC50 in series [3] of 4.52.
